Measured values: US20220259164A1, “USE OF AMINOTHIOL COMPOUNDS AS CEREBRAL NERVE OR HEART PROTECTIVE AGENT” (SHANGHAI KECHOW PHARMA, INC., priority 2019, published 2022)
“And” between values parts separate entries of the source, which are not always exact repeats. Identical values can stand only once. Where a SMILES comes first, the peptide text is derived from it. [ ]: non-standard residue; d: D form. NMeC = CN[C@@H](CS)C(=O)O

What was measured:
[1] = tested on: bleomycin (BLM)-induced scleroderma mouse model; assay: Hydroxyproline level in skin lesion, BLM-induced scleroderma mouse model; format: in vivo, mice; settings: compound A (hydrochloride) 600 mg/kg/d by gavage or compound B (trifluoroacetate) 200 mg/kg/d i.p., 28 days with BLM
Excerpt: (§1) Materials: C57BL/6 female mice, weighing 20-25 g, were purchased from Shanghai SLAC Laboratory Animal Co., Ltd. Using a random number table method, 24 mice were divided into a blank control group (1), a scleroderma model group (2), a scleroderma+compound A treatment group (3), and a scleroderma+compound B treatment group (4), with 6 mice in each group. Bleomycin (BLM) was purchased from Sigma. An H-E staining kit was purchased from Beijing Solarbio Science & Technology Co., Ltd. Compound A used in this example was in the form of a hydrochloride thereof, and compound B was in the form of a trifluoroacetate thereof.
(§2) Method: The intended injection site (area 1 cm^2) of the mice was shaved using an electric shaver. […] Conventional iodine tincture was used to disinfect the back skin of the mice, and a local diseased skin tissue was surgically cut, fixed in 4% paraformaldehyde, embedded in paraffin, sectioned, and analyzed by H-E staining. […]
(§3) Method: Part of the skin lesion tissue of the mice was taken, and the contents of hydroxyproline and hydrogen peroxide in the skin lesion region were detected according to the requirements in the kit instructions.

[2] = tested on: bleomycin (BLM)-induced scleroderma mouse model; assay: H2O2 level in skin lesion, BLM-induced scleroderma mouse model; format: in vivo, mice; settings: compound A (hydrochloride) 600 mg/kg/d by gavage or compound B (trifluoroacetate) 200 mg/kg/d i.p., 28 days with BLM
Excerpt: as §1, §2, §3

[3] = tested on: rat myocardial infarction model (coronary ligation 30 min, reperfusion); assay: Myocardial infarction model: myocardial enzyme LDH in serum; format: in vivo; settings: for Improvement rate (%) of LDH: compared with model group; for LDH: serum, x ± s, n = 10
Description: 1. The rats were grouped and administered according to the following methods (2) Compound B (i.v.) at 100 mg/kg (3) Compound A (i.v.) at 100 mg/kg (4) Compound A (oral) at 500 mg/kg (5) Isosorbide mononitrate injection (i.v.) at 1 mg/kg (equivalent to clinical equivalent dose). There were 10 rats in each group, and the rats were administered intravenously immediately after 30 min of ischemia and reperfusion, i.v. 10% 1 min+i.v. drip 90% 30 min. The administration volume was 2 ml/rat. Compound A (oral) at 500 mg/kg was administered intragastrically 2 h after reperfusion when the animal was awake, and the administration volume was 10 ml/kg. Note: Compounds A and B used in this example were in the form of hydrochloride salts thereof. Given intraperitoneal injection of 3% sodium pentobarbital at 60 mg/kg for general anesthesia, the rats were fixed on an operating table in the supine position. The surgical field of the anterolateral chest was depilated and routinely disinfected. The skin and muscular layer were cut open, purse-string suture was performed on the muscular layer, the chest was opened on the left at the fourth intercostal space, and the heart was pulled out with a ring-shaped retractor. At the position of the anterior descending coronary artery 3-4 mm below the left atrial appendage, a 6/0 damage-free silk thread was threaded, and a nylon thread with a diameter of 1.6 mm was juxtaposed and ligated together with the anterior descending coronary artery, while the other end was left outside the body for later use. The heart was placed back into the chest cavity, the air in the chest cavity was emptied, and the chest cavity was closed. 30 min after ligation, the nylon thread was carefully removed for reperfusion. Compared with the normal lead II electrocardiogram (ECG-II), ST segment elevation in ECG-II by 0.1 mV or more 30 min after coronary artery ligation was regarded as successful ischemia. […] Blood was collected from the rats through the abdominal aorta and centrifuged at 3000 rpm×10 min at 4° C., and the upper serum was taken to determine LDH by enzyme-linked immunosorbent assay.

[4] = tested on: SD rat cerebral ischemia reperfusion injury model (MCAO); assay: Neurobehavioral evaluation (5-point Longa/Bederson score) in rat ischemic stroke model (MCAO); format: in vivo; design: key to Neurological function score After modeling: Longa/Bederson 5-point scale (0-4); higher = more severe deficit; settings: for Neurological function score After modeling: individual rats
Excerpt: Healthy male SPF grade SD rats (body weight 250-300 g) were selected. […] (2) A midline neck incision was made to expose the right common carotid artery, internal carotid artery and external carotid artery. A 6-0 silk thread was used to ligate the distal end of the external carotid artery at 4 mm from the bifurcation of the common carotid artery, another 6-0 silk thread was inserted at the external carotid artery, and a slipknot was tied near the bifurcation of the common carotid artery. (3) An arterial clamp was used to clamp the common carotid artery. […] (4) The thread embolism was removed 90 min after ischemia, the proximal end of the external artery was ligated with a 6-0 silk thread, the neck wound was sutured with a 3-0 silk thread, the wound was disinfected with povidone iodine, the rats were placed on a heating pad, and after being awake, they were placed in a constant temperature rearing box for rearing. […] The experimental animals were scored for signs of neurological function deficit before and after modeling. The scoring standard was given by reference to the 5-point system of Longa and Bederson. The scoring was performed 24 h after the animals were awake from anesthesia. The higher the score, the more severe the behavioral disorder of the animals. 0 point: No nerve damage symptoms […] Inability to fully extend the contralateral front paw […] Turning in a circle to the opposite side […] Falling over to the opposite side 4 points: Inability to walk spontaneously, and loss of consciousness In a manner same as in Example 1, experimental animals were selected, except that the experiment was divided into seven groups (i.e., groups […], and G, among which groups C, D, and E were given different dosages of administration from Example 1, group F was given edaravone, and group G was given amifostine).

[5] = compound A (hydrochloride) i.v. 100 mg/kg
[6] = compound A (hydrochloride) oral 500 mg/kg
[7] = Example 2 group D: compound A (trifluoroacetate) 400 mg/kg p.o. 2.5 h before reperfusion, 400 mg/kg
[8] = Example 2 group E: compound A (trifluoroacetate) 800 mg/kg p.o. 2.5 h before reperfusion, 800 mg/kg
[9] = compound B (hydrochloride) i.v. 100 mg/kg
[10] = Example 2 group C: compound B (trifluoroacetate) 100 mg/kg i.p. 5 min before reperfusion, 100 mg/kg

Row | Compound | Level of hydroxyproline in the skin lesion site [1] | Concentration of H2O2 in the skin [2] | Improvement rate (%) of LDH [3, 5] | LDH [3, 5] | Improvement rate (%) of LDH [3, 6] | LDH [3, 6] | % Behavioral improvement ([4]; Example 1 group E: compound A (trifluoroacetate) 1600 mg/kg p.o. 2.5 h before reperfusion, 1600 mg/kg) | Neurological function score After modeling ([4]; Example 1 group E: compound A (trifluoroacetate) 1600 mg/kg p.o. 2.5 h before reperfusion, 24 h, 1600 mg/kg) | % Behavioral improvement [4, 7] | Neurological function score After modeling [4, 7] | % Behavioral improvement [4, 8] | Neurological function score After modeling [4, 8] | Improvement rate (%) of LDH [3, 9] | LDH [3, 9] | % Behavioral improvement ([4]; Example 1 group C: compound B (trifluoroacetate) 200 mg/kg i.p. 5 min before reperfusion, 200 mg/kg) | Neurological function score After modeling ([4]; Example 1 group C: compound B (trifluoroacetate) 200 mg/kg i.p. 5 min before reperfusion, 24 h, 200 mg/kg) | % Behavioral improvement ([4]; Example 1 group D: compound B (trifluoroacetate) 200 mg/kg i.p. during ischemia and 200 mg/kg i.p. 5 min before reperfusion) | Neurological function score After modeling ([4]; Example 1 group D: compound B (trifluoroacetate) 200 mg/kg i.p. during ischemia and 200 mg/kg i.p. 5 min before reperfusion, 24 h) | % Behavioral improvement [4, 10] | Neurological function score After modeling [4, 10]
1 | CNC(=O)[C@H](CS)NC(=O)[C@H](CS)NC [Compound A, (R)-3-mercapto-N—((R)-3-mercapto-1-(methylamino)-1-oxoprop-2-yl)-2-(methylamino)propionamide] (H-[NMeC]-Cys-NHMe) | down-regulated | reduced | 19.9% | 1521.6 ± 353.6 U/L | 25.8% | 1408 ± 308.7 U/L | 77.8% | 1 (2×) and 0 | 46.99% | 2 (3×) and 1 (3×) | 59.01% | 1 (5×) and 2 | – | – | – | – | – | – | – | –
2 | CNC(=O)[C@H](CS)NC(=O)[C@H](CS)NC(=O)[C@H](CS)NC [Compound B, (R)-3-mercapto-N—((R)-3-mercapto-1-(((R)-3-mercapto-1-(methylamino)-1-oxoprop-2-yl)amino)-1-oxoprop-2-yl)-2-(methylamino)propionamide] (H-[NMeC]-Cys-Cys-NHMe) | down-regulated | reduced | – | – | – | – | – | – | – | – | – | – | 22.2% | 1476.7 ± 282.4 U/L | 66.7% | 0 and 1 (3×) and 2 | 66.7% | 1 | 29.32% | 1 and 2 (4×) and 3
